In publication PMC3596113 (Clinical cancer research : an official journal of the …, 2012):
Like-named read-outs stand apart in the source and are kept apart here. Marks after values point to notes of the source that are not given here.

Experiments:
[1] = tested on: phosphorylation of histone H2Ax in leukemia blast cells; assay: H2Ax phosphorylation in marrow blasts; assay type: in vivo, human
[2] = tested on: relapsed and refractory acute leukemias
[3] = tested on: Chk2; details: cited from earlier work
[4] = tested on: CDK1; details: cited from earlier work
[5] = AML patient 49, dose level 1, Ref
[6] = AML patient 73, dose level 5, Relapse 66 mo
[7] = Total, 24 adults, all dose levels
[8] = dose level 1, 10 mg/m^2 (n = 3) + cytarabine
[9] = dose level 2, 20 mg/m^2 (n = 3) + cytarabine
[10] = dose level 4, 56 mg/m^2 (n = 6) + cytarabine
[11] = dose level 5, 140 mg (n = 6) + cytarabine

## Cn1cc(-c2cnn3c(N)c(Br)c([C@@H]4CCCNC4)nc23)cn1 [SCH 900776]
[1]; patients treated with 40 mg/m^2 SCH 900776 or higher
  Sets of samples with enhanced H2Ax phosphorylation: 3 of 5
[2]; 1 CRi of 6 patients at SCH 900776 doses ≤ 20 mg/m^2
  Response rate (CR plus CRi): 17%
[2]; 2 of 10 patients with AML with adverse cytogenetics
  CR/CRi rate: 20%
[2]; 2 of 10 patients with a complex karyotype
  CR/CRi rate: 20%
[2]; 3 of 8 with secondary AML
  CR/CRi rate: 38%
[2]; 4/8 with relapsed AML
  CR/CRi rate: 50%
[2]; 7 (5 CR, 2 CRi) of 18 patients at dose level 3 (40 mg/m^2) or higher
  Response rate (CR plus CRi): 39%
[2]; 8 of 21 patients with AML
  CR/CRi rate in patients with AML: 38%
[2]; 8 of 24 patients, all dose levels
  Overall response rate (CR plus CRi): 33%
[2]; 12 of 24 patients, all dose levels
  Complete tumor clearance (CTC) by day 14, rate: 50%
[2]; AML patient 25, dose level 3, Relapse 7 mo
  DFS (mo): 25.2+ mo
[2]; [5]
  DFS (mo): 2.0 mo
  Response (CR/CRi): CRi
[2]; AML patient 52, dose level 3, primary Ref
  DFS (mo): 2.2 mo
[2]; AML patient 55, dose level 3, primary Ref
  DFS (mo): 11.3 mo
[2]; AML patient 60, dose level 4, Relapse 8 mo
  DFS (mo): 22.4+ mo
[2]; AML patient 61, dose level 5, Relapse 19 mo
  DFS (mo): 18.1+ mo
[2]; AML patient 70, dose level 4, primary Ref
  DFS (mo): 9.7 mo
[2]; [6]
  DFS (mo): 0.2 mo
  Response (CR/CRi): CRi
[2]; [7]
  Day 14 CTC (patients): 12
  Response (CR/CRi) (patients): 8 (5/3): all AML
[2]; Total, 24 adults, high = prior 2 g/m^2/72 h infusion or high-dose cytarabine
  Response in pts with prior cytarabine: 7 (6 high)
[2]; all patients with CR/CRi, range 0.2–27+
  Median duration of response: 10 months
[2]; as of June 1, 2012, at 19+ to 30.5+ months
  Responders remaining alive: 5 of the 8
[2]; at least 2 of 6 in each of dose levels 3 through 5
  Response rate (CR plus CRi): ≥ 33%
[2]; at least 3 of 6 per level beginning at dose level 3 (40 mg/m^2)
  Complete tumor clearance (CTC) by day 14, rate: ≥ 50%
[2]; [8]
  Day 14 CTC (patients): 1
  Response (CR/CRi) (patients): 1 (0/1): AML
[2]; dose level 1, 10 mg/m^2 (n = 3), high = prior 2 g/m^2/72 h infusion or high-dose cytarabine
  Response in pts with prior cytarabine: 1 (high) ^a
[2]; dose level 2, 20 mg/m^2 (n = 3)
  Response in pts with prior cytarabine: 0
[2]; [9]
  Day 14 CTC (patients): 1
  Response (CR/CRi) (patients): 0 (0/0)
[2]; dose level 3, 40 mg/m^2 (n = 6) + cytarabine
  Day 14 CTC (patients): 4
[2]; dose level 3, 40 mg/m^2 (n = 6), high = prior 2 g/m^2/72 h infusion or high-dose cytarabine
  Response in pts with prior cytarabine: 2 (both high)
[2]; [10]
  Day 14 CTC (patients): 3
  Response (CR/CRi) (patients): 2 (2/0): both AML
[2]; dose level 4, 56 mg/m^2 (n = 6), high = prior 2 g/m^2/72 h infusion or high-dose cytarabine
  Response in pts with prior cytarabine: 2 (1 high)
[2]; [11]
  Day 14 CTC (patients): 3
  Response (CR/CRi) (patients): 2 (1/1): both AML
[2]; dose level 5, 140 mg (n = 6), high = prior 2 g/m^2/72 h infusion or high-dose cytarabine
  Response in pts with prior cytarabine: 2 (both high)
[2]; human, in vivo
  CR/CRi in patients who had day 14 CTC: 8 of the 12
  CR/CRi in patients who had residual leukemia on day 14: none
[2]; patients with FLT3-ITD AML
  CR/CRi: none
[3]
  Effect on Chk2: without substantial effect
[4]
  Effect on CDK1: without substantial effect

## Nc1ccn([C@@H]2O[C@H](CO)[C@@H](O)[C@@H]2O)c(=O)n1 [cytarabine, reference compound]
[1]; marrow blasts, after 24 hours of continuous cytarabine infusion, before SCH 900776 (day 2)
  Samples with increase in H2Ax phosphorylation: 2 of 10
